Reference: PubChem BioAssay (NCI)
Values joined by “and” are separate entries in the source; they are usually repeats but may differ in a detail not shown here. Equal values may be shown once.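 48-hour exposure; five concentrations; linearly interpolated endpoints. Abbreviation: GI50, concentration required for 50% inhibition of growth. At the TGI there is no net growth.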

system: UACC-62 melanoma; assay: NCI tumour cell line growth inhibition, 48 h

Going from c1ccc2c(OCCSCCCCCCCCCCSCCOc3cccc4ccccc34)cccc2c1 to O=C(Nc1cccc(C(F)(F)F)c1)c1ccc(NC2=C(Cl)C(=O)N(Cc3ccc(Cl)cc3Cl)C2=O)cc1, the TGI falls from > 100 µM to 26.6 µM.

Going from Cc1cc2c(=O)c3ccccc3[nH]c2c(C(N)=O)c1C to CN1CCC(=O)/C(=C/c2ccccc2)C1, the TGI falls from > 100 µM to 36.9 µM.

O=C(Nc1cccc(C(F)(F)F)c1)c1ccc(NC2=C(Cl)C(=O)N(Cc3ccc(Cl)cc3Cl)C2=O)cc1 was tested, and the GI50 was 13.7 µM.

system: SNB-19 CNS; assay: NCI tumour cell line growth inhibition, 48 h

Compared with COC(=O)C(=Cc1cc(OC)c(OC)c(OC)c1-c1cc2c(cc1C1(C)OCCS1)OCO2)C(=O)OC (configuration not stated), COc1c(O)c2c(=O)cc3c4c5c(cc(=O)c6c(O)c(OC)c(CC(C)O)c(c(c1CC(C)O)c24)c65)OCO3 (configuration not stated) is lower in TGI: > 100 µM for the first, 7.53 µM for the second.

C#CC1/C(=C\C(=O)OC)CCCC1O (configuration not stated) and COc1ccc(OCC(=O)O)c2c1CCCC2=O cannot be ordered by TGI: > 100 µM for the first, > 100 µM for the second.

Going from CC12CCC(=O)C[C@H]1CCC(OC=O)C2Br (some centres not stated) to CC(C)C1=Cc2ccc3c(c2C(=O)C1=O)CCCC3(C)C, the TGI falls from > 100 µM to 31.3 µM.

COc1ccc(-c2nnc3n(C)c(=O)c4ccccc4n23)cc1N and Cc1cc2c(=O)c3ccccc3[nH]c2c(C(N)=O)c1C cannot be ordered by TGI: > 100 µM for the first, > 100 µM for the second.

First: CN(C)C1CCN(C(=O)c2ccc(NC(=O)Nc3ccc(-c4nc(N5CCOCC5)c5cccn5n4)cc3)cc2)CC1
Second: COc1ccc(C(=O)Nc2ccc(O)c(=O)cc2)cc1
The TGI of the first is 15-fold lower: 6.22 µM for the first, 93.6 µM for the second.

Going from Cc1nc(Nc2ccc(Cl)cc2)sc1C(=O)NNC(=S)NN to COC(=O)/C(=N\NC(N)=S)C(C(=O)OC)C(=O)C(=O)Nc1ccc(C)cc1 (configuration not stated), the TGI rises from 34.8 µM to > 100 µM.

COc1ccc2c(c1OCC(=O)O)C(=O)C(CCC(=O)O)CC2 (configuration not stated) and COC(=O)c1ccc2c(c1)C(=O)c1c-2n(CCCN=[N+]=[N-])c(=O)c2cc(OC)c(OC)cc12 cannot be ordered by TGI: > 100 µM for the first, > 100 µM for the second.

Going from Cc1ccc2nc(/C(=C/c3ccc(/C=C(\NC(=O)c4ccccc4)c4nc5ccc(C)cc5[nH]4)c(C)c3)NC(=O)c3ccccc3)[nH]c2c1 to O=C(Nc1cccc(Cl)c1)C(=O)C(C(=O)c1ccc2ccccc2c1)C1OC(=O)c2ccccc21 (configuration not stated), the TGI falls from > 100 µM to 28 µM.

COC1C(OC(=S)Nc2ccccc2)c2ccccc2N1C(C)=O (configuration not stated) and C/C(CC(=O)Nc1ccc(C)c(C)c1)=N\N(c1ccccc1)c1ccccc1 cannot be ordered by TGI: > 100 µM for the first, > 100 µM for the second.

Going from CC1=Cc2cccc(C)c2C(=O)C1=O to Cc1ccc(C)c(NC(=O)c2cccc([N+](=O)[O-])c2O)c1, the TGI rises from 45.3 µM to > 100 µM.

COCC(OC)C(CC=C(C#N)C#N)OC (configuration not stated) and COc1ccc(CCN(C)C2CCC(C#N)(c3ccc(OC)c(OC)c3)CC2)cc1OC (configuration not stated) cannot be ordered by TGI: > 100 µM for the first, > 100 µM for the second.

Compared with NC1CCN(Cc2ccccc2)CC1, CN1CCC(=O)/C(=C/c2ccccc2)C1 is lower in TGI: > 100 µM for the first, 30.8 µM for the second.

First: N#Cc1nn(-c2cc(=O)[nH]c3ccc(Cl)cc23)c(N)c1C#N
Second: O=C1CCC2(c3ccc(Cl)cc3)Nc3cc(Cl)ccc3N12 (configuration not stated)
The TGI of the first is higher: > 100 µM for the first, 42.6 µM for the second.

Compared with On1c(-c2ccccc2)c(-c2ccccc2N2CCCC2)c2ccccc21, CN(C)CCC(/C=C/c1ccccc1)=N\Nc1ccccc1 is lower in TGI: > 100 µM for the first, 14.1 µM for the second.

N#CC(C(=O)/C(=N\NC(N)=O)C(C#N)c1ccc(Cl)cc1)c1ccc(Cl)cc1 (configuration not stated) and O=C(Nc1cccc(C(F)(F)F)c1)c1ccc(NC2=C(Cl)C(=O)N(Cc3ccc(Cl)cc3Cl)C2=O)cc1 cannot be ordered by TGI: > 100 µM for the first, > 100 µM for the second.

CC(C)(C)c1cc(C(P(=O)(O)O)P(=O)(O)O)cc(C(C)(C)C)c1O and CCOC(=O)c1ccc(/C(C)=N/NC(N)=S)cc1 cannot be ordered by TGI: > 100 µM for the first, > 100 µM for the second.

First: Nc1ncn([C@@H]2O[C@H](CO)[C@@H](O)[C@H]2O)c(=O)n1
Second: CCOC(=O)c1nc2c(OC)nn(O)cc-2c1[N+](=O)[O-]
The TGI of the first is higher: > 100 µM for the first, 62.8 µM for the second.

CSc1nc(SC)c2c(C#N)[nH]nc2n1 and Cc1nc(N)sc1N=Nc1ccccc1Br cannot be ordered by TGI: > 100 µM for the first, > 69.7 µM for the second.

C=CCC1(c2ccc(OC)cc2)C=CC(=O)CC1 (configuration not stated) and CC1(C)COC(c2cccc3c2C(=O)c2cccc(Cl)c2-3)=N1 cannot be ordered by TGI: > 100 µM for the first, > 100 µM for the second.

Compared with COC(=O)[C@]12CC[C@@H](C)[C@H](C)[C@@H]1C1=CC[C@@H]3[C@@]4(C)C[C@@H](O)[C@H](O)[C@@](C)(CO)C4=CC[C@@]3(C)[C@]1(C)CC2, O=C(OC1CCC(=C2SCCCS2)[C@H]1C1SCCCS1)c1ccccc1 (some centres not stated) is higher in TGI: 38.5 µM for the first, > 100 µM for the second.

C/C(N=NC(=S)N1CC2CCC(CC2)C1)=C1\C=CC=CN1O and c1ccc2c(OCCSCCCCCCCCCCSCCOc3cccc4ccccc34)cccc2c1 cannot be ordered by TGI: > 82.5 µM for the first, > 100 µM for the second.

First: COc1ccc(-c2nnc3n(C)c(=O)c4ccccc4n23)cc1N
Second: CCOC(=O)N[C@H]1CCc2cc(OC)c(OC)c(OC)c2-c2ccc(SC)c(=O)cc21
The GI50 of the first is higher: 3.65 µM for the first, < 0.01 µM for the second.

Going from CN(C)C1CCN(C(=O)c2ccc(NC(=O)Nc3ccc(-c4nc(N5CCOCC5)c5cccn5n4)cc3)cc2)CC1 to O=C(Nc1cccc(C(F)(F)F)c1)c1ccc(NC2=C(Cl)C(=O)N(Cc3ccc(Cl)cc3Cl)C2=O)cc1, the GI50 rises from 0.0403 µM to 22.8 µM (570-fold).

COC(=O)c1ccc2c(c1)C(=O)c1c-2n(CCCN=[N+]=[N-])c(=O)c2cc(OC)c(OC)cc12 and N#Cc1nn(-c2cc(=O)[nH]c3ccc(Cl)cc23)c(N)c1C#N cannot be ordered by GI50: > 100 µM for the first, > 100 µM for the second.

Going from NC1CCN(Cc2ccccc2)CC1 to COC(=O)[C@]12CC[C@@H](C)[C@H](C)[C@@H]1C1=CC[C@@H]3[C@@]4(C)C[C@@H](O)[C@H](O)[C@@](C)(CO)C4=CC[C@@]3(C)[C@]1(C)CC2, the GI50 falls from > 100 µM to 18 µM.

Nc1ncn([C@@H]2O[C@H](CO)[C@@H](O)[C@H]2O)c(=O)n1 was tested, and the GI50 was 4.1 µM.

In the case of CCOC(=O)N[C@H]1CCc2cc(OC)c(OC)c(OC)c2-c2ccc(SC)c(=O)cc21, the TGI is reported as 91.7 µM and > 100 µM.

system: A498 renal; assay: NCI tumour cell line growth inhibition, 48 h

C#CC1/C(=C\C(=O)OC)CCCC1O (configuration not stated) and COc1ccc(OCC(=O)O)c2c1CCCC2=O cannot be ordered by TGI: > 100 µM for the first, > 100 µM for the second.

Compared with CC12CCC(=O)C[C@H]1CCC(OC=O)C2Br (some centres not stated), CC(C)C1=Cc2ccc3c(c2C(=O)C1=O)CCCC3(C)C is lower in TGI: > 100 µM for the first, 34 µM for the second.

Compared with COc1ccc(-c2nnc3n(C)c(=O)c4ccccc4n23)cc1N, CC1(C)COC(c2cccc3c2C(=O)c2cccc(Cl)c2-3)=N1 is higher in TGI: 54.5 µM for the first, > 100 µM for the second.

First: Cc1nc(Nc2ccc(Cl)cc2)sc1C(=O)NNC(=S)NN
Second: COC(=O)/C(=N\NC(N)=S)C(C(=O)OC)C(=O)C(=O)Nc1ccc(C)cc1 (configuration not stated)
The TGI of the first is lower: 29.1 µM for the first, > 100 µM for the second.

First: COc1ccc2c(c1OCC(=O)O)C(=O)C(CCC(=O)O)CC2 (configuration not stated)
Second: CCOC(=O)c1nc2c(OC)nn(O)cc-2c1[N+](=O)[O-]
The TGI of the first is higher: > 100 µM for the first, 36.2 µM for the second.

Cc1ccc2nc(/C(=C/c3ccc(/C=C(\NC(=O)c4ccccc4)c4nc5ccc(C)cc5[nH]4)c(C)c3)NC(=O)c3ccccc3)[nH]c2c1 and O=C(/C(=C/c1ccc(Cl)cc1)c1ccccc1)c1ccccc1 are within 1.5-fold of each other in TGI: 53.6 µM for the first, 44.9 µM for the second.

COC1C(OC(=S)Nc2ccccc2)c2ccccc2N1C(C)=O (configuration not stated) and C/C(CC(=O)Nc1ccc(C)c(C)c1)=N\N(c1ccccc1)c1ccccc1 cannot be ordered by TGI: > 100 µM for the first, > 100 µM for the second.

First: CC1=Cc2cccc(C)c2C(=O)C1=O
Second: Cc1ccc(C)c(NC(=O)c2cccc([N+](=O)[O-])c2O)c1
The TGI of the first is 2.6-fold lower: 30.9 µM for the first, 80.9 µM for the second.

COCC(OC)C(CC=C(C#N)C#N)OC (configuration not stated) and N#CC(C(=O)/C(=N\NC(N)=O)C(C#N)c1ccc(Cl)cc1)c1ccc(Cl)cc1 (configuration not stated) cannot be ordered by TGI: > 100 µM for the first, > 100 µM for the second.

Compared with N#Cc1nn(-c2cc(=O)[nH]c3ccc(Cl)cc23)c(N)c1C#N, O=C1CCC2(c3ccc(Cl)cc3)Nc3cc(Cl)ccc3N12 (configuration not stated) is lower in TGI: > 100 µM for the first, 24.6 µM for the second.

Compared with On1c(-c2ccccc2)c(-c2ccccc2N2CCCC2)c2ccccc21, CN(C)CCC(/C=C/c1ccccc1)=N\Nc1ccccc1 is lower in TGI: > 100 µM for the first, 28.2 µM for the second.

CC(C)(C)c1cc(C(P(=O)(O)O)P(=O)(O)O)cc(C(C)(C)C)c1O and CCOC(=O)c1ccc(/C(C)=N/NC(N)=S)cc1 cannot be ordered by TGI: > 100 µM for the first, > 100 µM for the second.

Going from Nc1ncn([C@@H]2O[C@H](CO)[C@@H](O)[C@H]2O)c(=O)n1 to COC(=O)[C@]12CC[C@@H](C)[C@H](C)[C@@H]1C1=CC[C@@H]3[C@@]4(C)C[C@@H](O)[C@H](O)[C@@](C)(CO)C4=CC[C@@]3(C)[C@]1(C)CC2, the TGI rises from 13.8 µM to 34 µM (2.5-fold).

First: CSc1nc(SC)c2c(C#N)[nH]nc2n1
Second: Cc1nc(N)sc1N=Nc1ccccc1Br
The TGI of the first is higher: > 100 µM for the first, 43.2 µM for the second.

Going from O=C(OC1CCC(=C2SCCCS2)[C@H]1C1SCCCS1)c1ccccc1 (some centres not stated) to CN1CCC(=O)/C(=C/c2ccccc2)C1, the TGI falls from > 100 µM to 33 µM.

Compared with C/C(N=NC(=S)N1CC2CCC(CC2)C1)=C1\C=CC=CN1O, O=C(Nc1cccc(C(F)(F)F)c1)c1ccc(NC2=C(Cl)C(=O)N(Cc3ccc(Cl)cc3Cl)C2=O)cc1 is lower in TGI: > 94.9 µM for the first, 25.9 µM for the second.

With c1ccc2c(OCCSCCCCCCCCCCSCCOc3cccc4ccccc34)cccc2c1 the TGI was > 100 µM.

Compared with COc1ccc(-c2nnc3n(C)c(=O)c4ccccc4n23)cc1N, N#Cc1nn(-c2cc(=O)[nH]c3ccc(Cl)cc23)c(N)c1C#N is higher in GI50: 2.84 µM for the first, > 100 µM for the second.

First: Nc1ncn([C@@H]2O[C@H](CO)[C@@H](O)[C@H]2O)c(=O)n1
Second: COC(=O)[C@]12CC[C@@H](C)[C@H](C)[C@@H]1C1=CC[C@@H]3[C@@]4(C)C[C@@H](O)[C@H](O)[C@@](C)(CO)C4=CC[C@@]3(C)[C@]1(C)CC2
The GI50 of the first is 13-fold lower: 1.41 µM for the first, 19 µM for the second.

O=C(Nc1cccc(C(F)(F)F)c1)c1ccc(NC2=C(Cl)C(=O)N(Cc3ccc(Cl)cc3Cl)C2=O)cc1 gave a GI50 of 6.51 µM.

system: HOP-92 NSCLC; assay: NCI tumour cell line growth inhibition, 48 h

Compared with COC(=O)C(=Cc1cc(OC)c(OC)c(OC)c1-c1cc2c(cc1C1(C)OCCS1)OCO2)C(=O)OC (configuration not stated), COc1ccc(-c2nnc3n(C)c(=O)c4ccccc4n23)cc1N is 2.6-fold higher in TGI: 37.6 µM for the first, 99.5 µM for the second.

C#CC1/C(=C\C(=O)OC)CCCC1O (configuration not stated) and CC12CCC(=O)C[C@H]1CCC(OC=O)C2Br (some centres not stated) cannot be ordered by TGI: > 100 µM for the first, > 100 µM for the second.

For CN(C)C1CCN(C(=O)c2ccc(NC(=O)Nc3ccc(-c4nc(N5CCOCC5)c5cccn5n4)cc3)cc2)CC1, the TGI was 0.102 µM.

Compared with COc1ccc(-c2nnc3n(C)c(=O)c4ccccc4n23)cc1N, CN(C)C1CCN(C(=O)c2ccc(NC(=O)Nc3ccc(-c4nc(N5CCOCC5)c5cccn5n4)cc3)cc2)CC1 is lower in GI50: 10.9 µM for the first, < 0.015 µM for the second.
